In patent US9204653B2, “5-fluoro pyrimidine derivatives” (DOW AGROSCIENCES LLC, priority 2008, dated 2015) one finds pest or weed control data, which are given here for 14 compounds.

The subject of this assay is Mycosphaerella graminicola; Anamorph: Septoria tritici; Bayer Code SEPTTR. Kind of assay: Leaf blotch of wheat, foliar fungicide treatment, one day protectant (1DP) or three day curative (3DC). Type of assay: in vivo, Septoria tritici on wheat plants (variety Yuma). The note with it: Zymoseptoria tritici.
Where [1] appears, read: 24 h, one day protectant (1DP), 25 ppm (first 1DP column), percent control rating, read-out: SETTTR 1DP 25 ppm.
The mark [2] stands for this setting: 24 h, one day protectant (1DP), 25 ppm as printed (second 1DP column), percent control rating, read-out: SETTTR 1DP 25 ppm.
Where [3] appears, read: 72 h, three day curative (3DC), 25 ppm, percent control rating, read-out: SEPTTR 3DC 25 ppm.
Where [4] appears, read: 72 h, three day curative (3DC), percent control rating, read-out: SEPTTR 3DC 100 ppm.
[5] abbreviates: 24 h, one day protectant (1DP), 25 ppm, rating of percent disease control, read-out: SETTTR 1DP 25 ppm.
Where [6] appears, read: 24 h, one day protectant (1DP), rating of percent disease control, read-out: SEPTTR 1DP 100 ppm.
Where [7] appears, read: 72 h, three day curative (3DC), 25 ppm, rating of percent disease control, read-out: SEPTTR 3DC 25 ppm.
Setting [8] is: 72 h, three day curative (3DC), rating of percent disease control, read-out: SEPTTR 3DC 100 ppm.

Where two headings read alike, the source gives them in different places.

For the compound `C=CCOc1ncc(F)c(N/N=C/c2ccco2)n1` [Compound 1064], the pest or weed control at 25 ppm by setting is: under setting [1], 0 to 25%; under setting [2], 0 to 25%; under setting [3], 0 to 25%. For the same compound, the pest or weed control at 100 ppm under setting [4] was 0 to 25%.

`C/C=C(C)/C=N/Nc1nc(OC)ncc1F` [Compound 1033]: the pest or weed control at 25 ppm under setting [1] was in the range of 0 to 25%, the pest or weed control at 25 ppm under setting [2] was 0 to 25% and the pest or weed control at 25 ppm under setting [3] fell in the range of 0 to 25%. The pest or weed control at 100 ppm under setting [4] lay in the range of 26 to 50%.

Turning to `O=[N+]([O-])c1ccccc1SNc1nc(OCc2cc(Cl)cc(Cl)c2)ncc1F` [Compound 90], the pest or weed control at 25 ppm was 76 to 100% (24 h, one day protectant (1DP), 25 ppm, percent disease control rating, read-out: SETTTR 1DP 25 ppm) and 26 to 50% (72 h, three day curative (3DC), 25 ppm, percent disease control rating, read-out: SEPTTR 3DC 25 ppm). In addition, the pest or weed control at 100 ppm (24 h, one day protectant (1DP), percent disease control rating, read-out: SEPTTR 1DP 100 ppm) was 76 to 100% and the pest or weed control at 100 ppm (72 h, three day curative (3DC), percent disease control rating, read-out: SEPTTR 3DC 100 ppm) lay in the range of 51 to 75%.

As to `CCC(Nc1nc(OCc2ccc(F)cc2)ncc1F)Nc1nc(OCc2ccc(F)cc2)ncc1F` [Compound 238], the pest or weed control at 25 ppm is, setting by setting: under setting [5], 0 to 25%; under setting [7], 0 to 25%. For the same compound, the pest or weed control at 100 ppm lay within 51 to 75% under setting [6] and 26 to 50% under setting [8].

Turning to `CC(C)/C(=N\c1nc(OCc2ccc(F)cc2)ncc1F)N(C)C` [Compound 744], the pest or weed control at 25 ppm under setting [5] is 76 to 100% and the pest or weed control at 25 ppm under setting [7] fell in the range of 76 to 100%. Further, the pest or weed control at 100 ppm reads like this: under setting [6], 76 to 100%; under setting [8], 76 to 100%.

On to `Nc1nc(OCc2ccnc3ccccc23)ncc1F` [Compound 401], for which the pest or weed control at 25 ppm lay within 76 to 100% under setting [5] and 76 to 100% under setting [7]. Besides, the pest or weed control at 100 ppm runs as follows: under setting [6], 76 to 100%; under setting [8], 76 to 100%.

For the compound `C/C(=N\Oc1ncc(F)c(N)n1)c1ccc(Cl)cc1` [Compound 1000], the pest or weed control at 25 ppm by setting is: under setting [1], 76 to 100%; under setting [2], 76 to 100%; under setting [3], 76 to 100%. Also, the pest or weed control at 100 ppm under setting [4] fell in the range of 76 to 100%.

As to `CCCNC(=O)Nc1nc(OCc2cccs2)ncc1F` [Compound 776], the pest or weed control at 25 ppm by setting is: under setting [5], 0 to 25%; under setting [7], 0 to 25%. The pest or weed control at 100 ppm was in the range of 0 to 25% under setting [6] and 0 to 25% under setting [8].

As for `CCCCN(C)/C=N/c1nc(OCc2ccc(F)cc2)ncc1F` [Compound 518], the pest or weed control at 25 ppm under setting [5] lay within 76 to 100% and the pest or weed control at 25 ppm under setting [7] is 76 to 100%. In addition, the pest or weed control at 100 ppm reads like this: under setting [6], 76 to 100%; under setting [8], 76 to 100%.

Turning to `CC#CCOc1ncc(F)c(N)n1` [Compound 489], the pest or weed control at 25 ppm runs as follows: under setting [5], 0 to 25%; under setting [7], 76 to 100%. The pest or weed control at 100 ppm is 51 to 75% under setting [6] and 76 to 100% under setting [8].

On to `COc1cccc(COc2ncc(F)c(NNc3nc4ccccc4s3)n2)c1` [Compound 1046], for which the pest or weed control at 25 ppm under setting [1] fell in the range of 0 to 25%, the pest or weed control at 25 ppm under setting [2] was 0 to 25% and the pest or weed control at 25 ppm under setting [3] lay in the range of 0 to 25%. Under setting [4], the pest or weed control at 100 ppm is 0 to 25%.

On to `COc1ncc(F)c(N/N=C/c2ccco2)n1` [Compound 1023], for which the pest or weed control at 25 ppm runs as follows: under setting [1], 0 to 25%; under setting [2], 0 to 25%; under setting [3], 0 to 25%. Moreover, under setting [4], the pest or weed control at 100 ppm is 0 to 25%.

For `Nc1nc(OCc2cccc(OC(F)(F)F)c2)ncc1F` [Compound 460], the pest or weed control at 25 ppm was 76 to 100% under setting [5] and 76 to 100% under setting [7]. Besides, the pest or weed control at 100 ppm under setting [6] was 76 to 100% and the pest or weed control at 100 ppm under setting [8] is 76 to 100%.

In the case of `CC(C)(C)OC(=O)NNc1nc(OCc2ccccc2)ncc1F` [Compound 765], the pest or weed control at 25 ppm fell in the range of 0 to 25% under setting [5] and 0 to 25% under setting [7]. In addition, the pest or weed control at 100 ppm under setting [6] is 26 to 50% and the pest or weed control at 100 ppm under setting [8] was 0 to 25%.
